Laboratory results taken from the NIST ThermoML archive (doi:10.1016/j.jct.2014.05.014).

Assay: cn = amount concentration of the nth substance listed, in mol/dm3
Conditions: 101.3 kPa, Liquid; for electrical conductivity: Alternating current cell with electrodes; for viscosity: Falling or rolling sphere viscometry; for mass density: Vibrating tube method

CC(N)C(=O)[O-].[K+] (stereo not drawn) [potassium DL-alaninate] + O
Conditions | electrical conductivity [S/m] | mass density [kg/m3] | viscosity [mPa·s]
303.15 K, c1 = 0.495 | – | 1024.1 | –
303.15 K, c1 = 0.514 | – | – | 0.942
303.15 K, c1 = 0.526 | 3.96 | – | –
303.15 K, c1 = 1.009 | 6.63 | – | –
303.15 K, c1 = 1.014 | – | 1051.7 | –
303.15 K, c1 = 1.029 | – | – | 1.118
303.15 K, c1 = 1.499 | 8.42 | – | –
303.15 K, c1 = 1.509 | – | 1078.7 | –
303.15 K, c1 = 1.524 | – | – | 1.342
303.15 K, c1 = 1.954 | – | 1103.2 | –
303.15 K, c1 = 1.999 | – | – | 1.6
303.15 K, c1 = 2.018 | 9.49 | – | –
303.15 K, c1 = 2.501 | 9.88 | – | –
303.15 K, c1 = 2.507 | – | 1131.4 | –
303.15 K, c1 = 2.522 | – | – | 1.964
303.15 K, c1 = 2.988 | – | 1155.8 | –
303.15 K, c1 = 3.046 | 9.87 | – | –
303.15 K, c1 = 3.048 | – | – | 2.422
303.15 K, c1 = 3.497 | 9.58 | – | –
303.15 K, c1 = 3.499 | – | 1181 | –
308.15 K, c1 = 0.495 | – | 1022.4 | –
308.15 K, c1 = 0.514 | – | – | 0.845
308.15 K, c1 = 0.526 | 4.34 | – | –
308.15 K, c1 = 1.009 | 7.25 | – | –
308.15 K, c1 = 1.014 | – | 1049.8 | –
308.15 K, c1 = 1.029 | – | – | 1.009
308.15 K, c1 = 1.499 | 9.18 | – | –
308.15 K, c1 = 1.509 | – | 1076.7 | –
308.15 K, c1 = 1.524 | – | – | 1.203
308.15 K, c1 = 1.954 | – | 1101.1 | –
308.15 K, c1 = 1.999 | – | – | 1.429
308.15 K, c1 = 2.018 | 10.4 | – | –
308.15 K, c1 = 2.501 | 10.8 | – | –
308.15 K, c1 = 2.507 | – | 1129.2 | –
308.15 K, c1 = 2.522 | – | – | 1.745
308.15 K, c1 = 2.988 | – | 1153.4 | –
308.15 K, c1 = 3.046 | 10.9 | – | –
308.15 K, c1 = 3.048 | – | – | 2.135
308.15 K, c1 = 3.497 | 10.6 | – | –
308.15 K, c1 = 3.499 | – | 1178.4 | –
313.15 K, c1 = 0.495 | – | 1020.5 | –
313.15 K, c1 = 0.514 | – | – | 0.769
313.15 K, c1 = 0.526 | 4.73 | – | –
313.15 K, c1 = 1.009 | 7.84 | – | –
313.15 K, c1 = 1.014 | – | 1047.7 | –
313.15 K, c1 = 1.029 | – | – | 0.909
313.15 K, c1 = 1.499 | 9.94 | – | –
313.15 K, c1 = 1.509 | – | 1074.5 | –
313.15 K, c1 = 1.524 | – | – | 1.093
313.15 K, c1 = 1.954 | – | 1098.8 | –
313.15 K, c1 = 1.999 | – | – | 1.29
313.15 K, c1 = 2.018 | 11.2 | – | –
313.15 K, c1 = 2.501 | 11.8 | – | –
313.15 K, c1 = 2.507 | – | 1126.8 | –
313.15 K, c1 = 2.522 | – | – | 1.569
313.15 K, c1 = 2.988 | – | 1150.9 | –
313.15 K, c1 = 3.046 | 11.8 | – | –
313.15 K, c1 = 3.048 | – | – | 1.907
313.15 K, c1 = 3.497 | 11.6 | – | –
313.15 K, c1 = 3.499 | – | 1175.8 | –
318.15 K, c1 = 0.495 | – | 1018.4 | –
318.15 K, c1 = 0.514 | – | – | 0.705
318.15 K, c1 = 0.526 | 5.12 | – | –
318.15 K, c1 = 1.009 | 8.45 | – | –
318.15 K, c1 = 1.014 | – | 1045.6 | –
318.15 K, c1 = 1.029 | – | – | 0.83
318.15 K, c1 = 1.499 | 10.7 | – | –
318.15 K, c1 = 1.509 | – | 1072.3 | –
318.15 K, c1 = 1.524 | – | – | 1
318.15 K, c1 = 1.954 | – | 1096.5 | –
318.15 K, c1 = 1.999 | – | – | 1.17
318.15 K, c1 = 2.018 | 12.1 | – | –
318.15 K, c1 = 2.501 | 12.7 | – | –
318.15 K, c1 = 2.507 | – | 1124.3 | –
318.15 K, c1 = 2.522 | – | – | 1.426
318.15 K, c1 = 2.988 | – | 1148.3 | –
318.15 K, c1 = 3.046 | 12.8 | – | –
318.15 K, c1 = 3.048 | – | – | 1.712
318.15 K, c1 = 3.497 | 12.6 | – | –
318.15 K, c1 = 3.499 | – | 1173.1 | –
323.15 K, c1 = 0.495 | – | 1016.2 | –
323.15 K, c1 = 0.514 | – | – | 0.644
323.15 K, c1 = 0.526 | 5.5 | – | –
323.15 K, c1 = 1.009 | 9.06 | – | –
323.15 K, c1 = 1.014 | – | 1043.4 | –
323.15 K, c1 = 1.029 | – | – | 0.76
323.15 K, c1 = 1.499 | 11.5 | – | –
323.15 K, c1 = 1.509 | – | 1069.9 | –
323.15 K, c1 = 1.524 | – | – | 0.922
323.15 K, c1 = 1.954 | – | 1094.2 | –
323.15 K, c1 = 1.999 | – | – | 1.069
323.15 K, c1 = 2.018 | 12.9 | – | –
323.15 K, c1 = 2.501 | 13.7 | – | –
323.15 K, c1 = 2.507 | – | 1121.8 | –
323.15 K, c1 = 2.522 | – | – | 1.301
323.15 K, c1 = 2.988 | – | 1145.7 | –
323.15 K, c1 = 3.046 | 13.9 | – | –
323.15 K, c1 = 3.048 | – | – | 1.549
323.15 K, c1 = 3.497 | 13.7 | – | –
323.15 K, c1 = 3.499 | – | 1170.3 | –
328.15 K, c1 = 0.495 | – | 1013.9 | –
328.15 K, c1 = 0.514 | – | – | 0.596
328.15 K, c1 = 0.526 | 5.89 | – | –
328.15 K, c1 = 1.009 | 9.68 | – | –
328.15 K, c1 = 1.014 | – | 1041 | –
328.15 K, c1 = 1.029 | – | – | 0.703
328.15 K, c1 = 1.499 | 12.2 | – | –
328.15 K, c1 = 1.509 | – | 1067.4 | –
328.15 K, c1 = 1.524 | – | – | 0.854
328.15 K, c1 = 1.954 | – | 1091.5 | –
328.15 K, c1 = 1.999 | – | – | 0.985
328.15 K, c1 = 2.018 | 13.8 | – | –
328.15 K, c1 = 2.501 | 14.6 | – | –
328.15 K, c1 = 2.507 | – | 1119 | –
328.15 K, c1 = 2.522 | – | – | 1.201
328.15 K, c1 = 2.988 | – | 1143 | –
328.15 K, c1 = 3.046 | 14.9 | – | –
328.15 K, c1 = 3.048 | – | – | 1.413
328.15 K, c1 = 3.497 | 14.7 | – | –
328.15 K, c1 = 3.499 | – | 1167.5 | –
333.15 K, c1 = 0.495 | – | 1011.5 | –
333.15 K, c1 = 0.514 | – | – | 0.547
333.15 K, c1 = 0.526 | 6.27 | – | –
333.15 K, c1 = 1.009 | 10.3 | – | –
333.15 K, c1 = 1.014 | – | 1038.5 | –
333.15 K, c1 = 1.029 | – | – | 0.649
333.15 K, c1 = 1.499 | 13 | – | –
333.15 K, c1 = 1.509 | – | 1064.9 | –
333.15 K, c1 = 1.524 | – | – | 0.799
333.15 K, c1 = 1.954 | – | 1088.8 | –
333.15 K, c1 = 1.999 | – | – | 0.902
333.15 K, c1 = 2.018 | 14.6 | – | –
333.15 K, c1 = 2.501 | 15.5 | – | –
333.15 K, c1 = 2.507 | – | 1116.3 | –
333.15 K, c1 = 2.522 | – | – | 1.104
333.15 K, c1 = 2.988 | – | 1140.2 | –
333.15 K, c1 = 3.046 | 15.8 | – | –
333.15 K, c1 = 3.048 | – | – | 1.286
333.15 K, c1 = 3.497 | 15.7 | – | –
333.15 K, c1 = 3.499 | – | 1164.6 | –
338.15 K, c1 = 0.495 | – | 1008.9 | –
338.15 K, c1 = 0.514 | – | – | 0.507
338.15 K, c1 = 0.526 | 6.64 | – | –
338.15 K, c1 = 1.009 | 10.8 | – | –
338.15 K, c1 = 1.014 | – | 1035.9 | –
338.15 K, c1 = 1.029 | – | – | 0.602
338.15 K, c1 = 1.499 | 13.8 | – | –
338.15 K, c1 = 1.509 | – | 1062.1 | –
338.15 K, c1 = 1.524 | – | – | 0.742
338.15 K, c1 = 1.954 | – | 1086.1 | –
338.15 K, c1 = 1.999 | – | – | 0.83
338.15 K, c1 = 2.018 | 15.5 | – | –
338.15 K, c1 = 2.501 | 16.4 | – | –
338.15 K, c1 = 2.507 | – | 1113.5 | –
338.15 K, c1 = 2.522 | – | – | 1.015
338.15 K, c1 = 2.988 | – | 1137.3 | –
338.15 K, c1 = 3.046 | 16.8 | – | –
338.15 K, c1 = 3.048 | – | – | 1.176
338.15 K, c1 = 3.497 | 16.7 | – | –
338.15 K, c1 = 3.499 | – | 1161.6 | –
343.15 K, c1 = 0.495 | – | 1006.3 | –
343.15 K, c1 = 0.514 | – | – | 0.475
343.15 K, c1 = 0.526 | 7.02 | – | –
343.15 K, c1 = 1.009 | 11.4 | – | –
343.15 K, c1 = 1.014 | – | 1033.1 | –
343.15 K, c1 = 1.029 | – | – | 0.563
343.15 K, c1 = 1.499 | 14.5 | – | –
343.15 K, c1 = 1.509 | – | 1059.4 | –
343.15 K, c1 = 1.524 | – | – | 0.693
343.15 K, c1 = 1.954 | – | 1083.4 | –
343.15 K, c1 = 1.999 | – | – | 0.77
343.15 K, c1 = 2.018 | 16.3 | – | –
343.15 K, c1 = 2.501 | 17.4 | – | –
343.15 K, c1 = 2.507 | – | 1110.5 | –
343.15 K, c1 = 2.522 | – | – | 0.94
343.15 K, c1 = 2.988 | – | 1134.4 | –
343.15 K, c1 = 3.046 | 17.8 | – | –
343.15 K, c1 = 3.048 | – | – | 1.087
343.15 K, c1 = 3.497 | 17.7 | – | –
343.15 K, c1 = 3.499 | – | 1158.6 | –
